This is an account of results in PubChem BioAssay AID256 (DTP/NCI, 2004).

The assay deals with CD2F1 mice, L1210 leukemia ip, survival T/C. The assay is described as follows: NCI In Vivo Anticancer Drug Screen. Data for tumor model L1210 Leukemia (intraperitoneal) in CD2F1 (CDF1) mice. Particulars: endpoint: mean survival time, higher = longer survival. Summed up:
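Transplantable tumor in mice; compound-treated vs vehicle-treated groups. Read-out = treated/control ratio of the measured endpoint.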

[1] abbreviates: dose: 50.0 mg/kg/injection, schedule: Q01DX009 (ip), vehicle: saline with Tween-80.
[2] abbreviates: dose: 100.0 mg/kg/injection, schedule: Q01DX009 (ip), vehicle: saline with Tween-80.
Setting [3] is: dose: 100.0 mg/kg/injection, schedule: Q01DX001 (ip), vehicle: saline.
[4] abbreviates: dose: 200.0 mg/kg/injection, schedule: Q01DX001 (ip), vehicle: saline.
[5] abbreviates: dose: 100.0 mg/kg/injection, schedule: Q04DX003 (ip), vehicle: saline with Tween-80.
Where [6] appears, read: dose: 200.0 mg/kg/injection, schedule: Q04DX003 (ip), vehicle: saline with Tween-80.
Setting [7] is: dose: 400.0 mg/kg/injection, schedule: Q04DX003 (ip), vehicle: saline with Tween-80.
The mark [8] stands for this setting: dose: 100.0 mg/kg/injection, schedule: Q04DX002 (ip), vehicle: saline with Tween-80.
The mark [9] stands for this setting: dose: 200.0 mg/kg/injection, schedule: Q01DX009 (ip), vehicle: saline with Tween-80.
Setting [10] is: dose: 400.0 mg/kg/injection, schedule: Q01DX009 (ip), vehicle: saline with Tween-80.

Each structure is given as a SMILES string. Several values for one entry are separate records, joined by “and”; a condition that tells them apart may be missing. Equal values may be shown once. Toxic doses and inconclusive results are not listed.

Regarding `N=C(N)SCCCSC(=N)N`, the T/C is, setting by setting: (dose: 25.0 mg/kg/injection, schedule: Q01DX009 (ip), vehicle: saline with Tween-80) 101 % of control; under setting [1], 96 % of control; (dose: 50.0 mg/kg/injection, schedule: Q04DX003 (ip), vehicle: saline) 98 % of control; under setting [2], 90 % of control; (dose: 100.0 mg/kg/injection, schedule: Q04DX003 (ip), vehicle: saline) 104 % of control; (dose: 200.0 mg/kg/injection, schedule: Q04DX003 (ip), vehicle: saline) 102 % of control.
Regarding `OCC1OC(n2ncc3c(Nc4ccccc4)ncnc32)C(O)C1O` (centres undefined), the T/C is 97 % of control (dose: 6.25 mg/kg/injection, schedule: Q01DX005 (ip), vehicle: other); 91 % of control (dose: 12.5 mg/kg/injection, schedule: Q01DX005 (ip), vehicle: other); 100 % of control (dose: 25.0 mg/kg/injection, schedule: Q01DX005 (ip), vehicle: other); 96 % of control (dose: 50.0 mg/kg/injection, schedule: Q01DX005 (ip), vehicle: other); 92 % of control (dose: 100.0 mg/kg/injection, schedule: Q01DX005 (ip), vehicle: other); 96 % of control (dose: 200.0 mg/kg/injection, schedule: Q01DX005 (ip), vehicle: other). Besides, for the setting “dose: 400.0 mg/kg/injection, schedule: Q01DX005 (ip), vehicle: other”, the T/C was 96 % of control.
`C=C(C)CNC1=C(C)C(=O)C2=C(C1=O)[C@@H](COC(N)=O)[C@]1(OC)[C@@H]3N[C@@H]3CN21`: the T/C by setting is: (dose: 1.5 mg/kg/injection, schedule: Q01DX001 (ip), vehicle: water) 97 % of control; (dose: 3.0 mg/kg/injection, schedule: Q01DX001 (ip), vehicle: water) 103 % of control; (dose: 6.0 mg/kg/injection, schedule: Q01DX001 (ip), vehicle: distilled water + Tween-80) 104 % of control; (dose: 6.0 mg/kg/injection, schedule: Q01DX001 (ip), vehicle: water) 103 % of control; (dose: 12.0 mg/kg/injection, schedule: Q01DX001 (ip), vehicle: distilled water + Tween-80) 114 % of control; (dose: 12.0 mg/kg/injection, schedule: Q01DX001 (ip), vehicle: water) 108 % of control. In addition, the T/C (dose: 48.0 mg/kg/injection, schedule: Q01DX001 (ip), vehicle: distilled water + Tween-80) is 108 % of control.
With `CCCCOCCSc1ccccc1`, the T/C is 96 % of control under setting [3] and 93 % of control under setting [4].
For the molecule `CCCCC(CCCC)(C(=O)NC)c1ccccc1`, the T/C is, setting by setting: under setting [5], 95 % of control; under setting [6], 97 % of control; under setting [7], 90 % of control.
As to `CC(C)CC(=O)NC(C(=O)NC(C(=O)NC(CC(C)C)C(O)CC(=O)NC(C)C(=O)NC(CC(C)C)C(O)CC(=O)O)C(C)C)C(C)C` (centres undefined), the T/C reads like this: (dose: 3.12 mg/kg/injection, schedule: Q01DX009 (ip), vehicle: Klucel (hydroxypropylcellulose) (HPC)) 96 % of control; (dose: 6.25 mg/kg/injection, schedule: Q01DX009 (ip), vehicle: Klucel (hydroxypropylcellulose) (HPC)) 100 % of control; (dose: 12.5 mg/kg/injection, schedule: Q01DX009 (ip), vehicle: Klucel (hydroxypropylcellulose) (HPC)) 96 % of control; (dose: 25.0 mg/kg/injection, schedule: Q01DX009 (ip), vehicle: Klucel (hydroxypropylcellulose) (HPC)) 100 % of control; (dose: 50.0 mg/kg/injection, schedule: Q01DX009 (ip), vehicle: Klucel (hydroxypropylcellulose) (HPC)) 94 % of control; (dose: 100.0 mg/kg/injection, schedule: Q01DX009 (ip), vehicle: Klucel (hydroxypropylcellulose) (HPC)) 97 % of control.
For the molecule `O=C(c1ccccc1)C1CC1C(=O)c1ccccc1` (centres undefined), the T/C is, setting by setting: under setting [8], 100 % of control; (dose: 200.0 mg/kg/injection, schedule: Q04DX002 (ip), vehicle: saline with Tween-80) 112 % of control; (dose: 400.0 mg/kg/injection, schedule: Q04DX002 (ip), vehicle: saline with Tween-80) 100 % of control.
On to `NCCS(=O)(=O)O`, for which the T/C (dose: 100.0 mg/kg/injection, schedule: Q01DX009 (ip), vehicle: water) was 95 % of control; the T/C (dose: 200.0 mg/kg/injection, schedule: Q01DX001 (ip), vehicle: water) was 98 % of control; the T/C (dose: 200.0 mg/kg/injection, schedule: Q01DX009 (ip), vehicle: water) was 86 % of control; the T/C (dose: 400.0 mg/kg/injection, schedule: Q01DX001 (ip), vehicle: water) was 96 % of control; the T/C (dose: 400.0 mg/kg/injection, schedule: Q01DX009 (ip), vehicle: water) is 92 % of control; the T/C (dose: 800.0 mg/kg/injection, schedule: Q01DX001 (ip), vehicle: water) is 98 % of control. Moreover, the T/C reads like this: (dose: 800.0 mg/kg/injection, schedule: Q01DX009 (ip), vehicle: water) 92 % of control; (dose: 1600.0 mg/kg/injection, schedule: Q01DX001 (ip), vehicle: water) 107 % of control.
As to `NC(=S)N/N=C/c1nccc2ccccc12`, the T/C was 97 % of control (dose: 6.25 mg/kg/injection, schedule: Q01DX010 (oral), vehicle: saline); 100 % of control (dose: 15.0 mg/kg/injection, schedule: Q01DX006 (iv), vehicle: saline); 97 % of control (dose: 25.0 mg/kg/injection, schedule: Q01DX009 (sc), vehicle: saline); 100 % of control (dose: 30.0 mg/kg/injection, schedule: Q01DX006 (iv), vehicle: saline); 98 % of control (dose: 50.0 mg/kg/injection, schedule: Q01DX001 (sc), vehicle: saline); 103 % of control (dose: 50.0 mg/kg/injection, schedule: Q01DX009 (sc), vehicle: saline). In addition, the T/C is, setting by setting: (dose: 75.0 mg/kg/injection, schedule: Q01DX009 (ip), vehicle: saline with Tween-80) 110 % of control; (dose: 168.0 mg/kg/injection, schedule: Q01DX Z (ip), vehicle: saline) 86 % of control; (dose: 200.0 mg/kg/injection, schedule: Q01DX001 (sc), vehicle: saline) 100 % of control; (dose: 360.0 mg/kg/injection, schedule: Q01DX001 (ip), vehicle: saline) 110 % of control.
In the case of `[Cl][Pt+2][Cl].[NH-]c1ccc(Cl)cc1[NH-]`, the T/C by setting is: (dose: 2.5 mg/kg/injection, schedule: Q01DX009 (ip), vehicle: saline with Tween-80) 113 % of control; (dose: 5.0 mg/kg/injection, schedule: Q01DX009 (ip), vehicle: saline with Tween-80) 118 % of control; (dose: 40.0 mg/kg/injection, schedule: Q01DX009 (ip), vehicle: saline with Tween-80) 179 % of control.
With `O=C1CC[C@H](NC(=O)OCc2ccccc2)C(=O)O1`, the T/C runs as follows: under setting [2], 88 % of control; under setting [9], 90 % of control; under setting [10], 88 % of control.
Consider `C=CCN(CC=C)C(=S)Nc1cccc(Br)c1`, for which the T/C (dose: 100.0 mg/kg/injection, schedule: Q01DX009 (ip), vehicle: other) is 96 % of control; the T/C (dose: 200.0 mg/kg/injection, schedule: Q01DX009 (ip), vehicle: other) was 95 % of control; the T/C (dose: 400.0 mg/kg/injection, schedule: Q01DX009 (ip), vehicle: other) is 101 % of control.
As for `S=c1nc[nH]c2c1ncn2CN1CCCCC1`, under setting [9], the T/C was 116 % of control.
In the case of `CCCCCCCCCCCCCCCC(=O)N1CCC(N2CCCCC2)CC1`, the T/C was 95 % of control under setting [1]; 97 % of control under setting [2]; 92 % of control under setting [5]; 92 % of control under setting [9]; 88 % of control under setting [6].
Consider `COc1cc2c(cc1OC)C(Cc1ccc3cc(OC)c(OC)cc3c1)=NCC2`, for which the T/C is 93 % of control under setting [2]; 87 % of control under setting [5]; 101 % of control under setting [9]; 89 % of control under setting [6]; 110 % of control under setting [10]; 101 % of control under setting [7].
Consider `COc1cc2c(cc1OC)C(Cc1ccccc1[N+](=O)[O-])=NCC2`, for which the T/C reads like this: under setting [3], 101 % of control; under setting [4], 94 % of control; (dose: 400.0 mg/kg/injection, schedule: Q01DX001 (ip), vehicle: saline) 95 % of control.
For the molecule `N#CC1C2CCC(O2)C1C(=O)Oc1ccccc1` (centres undefined), the T/C by setting is: (dose: 25.0 mg/kg/injection, schedule: Q04DX002 (ip), vehicle: saline with Tween-80) 103 % of control; (dose: 50.0 mg/kg/injection, schedule: Q04DX002 (ip), vehicle: saline with Tween-80) 95 % of control; under setting [8], 97 % of control and 110 % of control.
